Converted amounts (≈) assume the structure as drawn.
Experiments:
[1] = system: Mycobacterium tuberculosis; assay: Antitubercular activity against Mycobacterium tuberculosis H37Rv ATCC 27294 assessed as bacterial growth inhibition incubated for 7 days in 7H9 medium by alamar blue staining based microplate fluorometric analysis; format: functional; settings: H37Rv ATCC 27294, 168 h, time 7 day
[2] = Water solubility of the compound in 80% acetronitrile/20% water meausred after 24 hrs by HPLC-UV analysis; format: physicochemical; settings: 80% acetonitrile/20% water
[3] = Half life in female ICR mouse at 25 mg/kg, po administered as single dose measured upto 24 hrs by HPLC analysis; format: ADME, organism-based; settings: in vivo
[4] = AUC (0 to infinity) in female ICR mouse at 25 mg/kg, po administered as single dose measured upto 24 hrs by HPLC analysis; format: ADME, organism-based; settings: in vivo
[5] = Cmax in female ICR mouse at 25 mg/kg, po administered as single dose measured upto 24 hrs by HPLC analysis; format: ADME, organism-based; settings: in vivo
[6] = Tmax in female ICR mouse at 25 mg/kg, po administered as single dose measured upto 24 hrs by HPLC analysis; format: ADME, organism-based; settings: in vivo
[7] = Cytotoxicity against African green monkey Vero cells assessed as reduction in cell viability incubated for 72 hrs by MTT assay; format: toxicity, cell-based; settings: chlorocebus sabaeus
hERG (KCNH2) = hERG (KCNH2) (Homo sapiens, UniProt Q12809); assay: Inhibition of human ERG expressed in HEK293 cells at 10 uM by electrophysiological method relative to control; format: toxicity, cell-based; settings: HEK293 cells expressing hERG
Chain of hERG (KCNH2) (Q12809 whole entry): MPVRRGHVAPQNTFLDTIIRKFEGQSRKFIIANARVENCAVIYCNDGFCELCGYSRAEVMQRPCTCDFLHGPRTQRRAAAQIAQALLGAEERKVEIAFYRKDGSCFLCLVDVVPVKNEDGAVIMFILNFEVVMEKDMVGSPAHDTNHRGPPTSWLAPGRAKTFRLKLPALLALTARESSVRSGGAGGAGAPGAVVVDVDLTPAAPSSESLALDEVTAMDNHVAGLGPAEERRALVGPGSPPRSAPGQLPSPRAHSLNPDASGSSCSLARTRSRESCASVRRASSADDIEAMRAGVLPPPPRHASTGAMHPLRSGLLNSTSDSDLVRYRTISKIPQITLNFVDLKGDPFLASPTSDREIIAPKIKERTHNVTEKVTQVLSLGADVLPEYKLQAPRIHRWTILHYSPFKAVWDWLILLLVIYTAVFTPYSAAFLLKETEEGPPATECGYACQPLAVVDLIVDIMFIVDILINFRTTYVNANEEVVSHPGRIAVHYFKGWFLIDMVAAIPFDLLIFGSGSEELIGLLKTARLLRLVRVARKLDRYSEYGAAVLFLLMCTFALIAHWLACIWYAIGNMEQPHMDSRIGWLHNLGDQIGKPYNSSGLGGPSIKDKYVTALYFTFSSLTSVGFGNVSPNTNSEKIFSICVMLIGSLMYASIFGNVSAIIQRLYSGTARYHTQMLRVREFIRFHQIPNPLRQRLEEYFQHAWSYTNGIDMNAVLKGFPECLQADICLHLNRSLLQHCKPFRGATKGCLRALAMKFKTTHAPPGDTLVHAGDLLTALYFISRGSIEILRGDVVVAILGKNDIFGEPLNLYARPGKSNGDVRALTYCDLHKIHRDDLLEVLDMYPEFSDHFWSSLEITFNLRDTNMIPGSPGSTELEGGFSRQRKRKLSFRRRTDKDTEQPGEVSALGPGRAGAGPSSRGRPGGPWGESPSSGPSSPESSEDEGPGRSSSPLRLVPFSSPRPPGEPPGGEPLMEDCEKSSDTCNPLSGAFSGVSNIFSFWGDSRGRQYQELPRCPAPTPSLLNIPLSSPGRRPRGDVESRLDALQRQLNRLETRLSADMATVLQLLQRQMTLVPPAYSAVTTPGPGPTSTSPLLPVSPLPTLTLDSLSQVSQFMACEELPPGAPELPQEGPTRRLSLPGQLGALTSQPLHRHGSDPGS

[8] = Acute toxicity in female ICR mouse assessed as change in body weight at 1000 mg/kg, po administered as single dose measured for 7 days; format: organism-based; settings: in vivo, 168 h, time 7 day
[9] = Acute toxicity in female ICR mouse assessed as animal death at 1000 mg/kg, po administered as single dose measured for 7 days; format: organism-based; settings: in vivo, 168 h, time 7 day
[10] = Acute toxicity in female ICR mouse assessed as lethal dose administered as single oral dose measured for 7 days; settings: in vivo, time 7 day
[11] = Water solubility of the compound in 60% acetronitrile/40% water meausred after 24 hrs by HPLC-UV analysis; format: physicochemical; settings: 60% acetonitrile/40% water

Molecule `CON=C1CCC(CN2CCN(c3nc(=O)c4cc(C(F)(F)F)cc([N+](=O)[O-])c4s3)CC2)CC1` (configuration not stated) has an MIC [1] of under 0.035 µM, a solubility at 24 h [2] of 1.6 µg/mL (≈ 3.2 µM) and a half-life [3] of 5.24 h. For the same molecule, the AUC(0-inf) [4] was 16900 ng·h/mL, the Cmax [5] was 8370 ng/mL and the Tmax [6] was 0.69 h.
For `O=C(O)CNC(=O)CCON=C1CCC(CN2CCN(c3nc(=O)c4cc(C(F)(F)F)cc([N+](=O)[O-])c4s3)CC2)CC1` (configuration not stated), the MIC [1] was 0.338 µM (≈ 0.208 µg/mL) and the CC50 at 72 h [7] was over 104 µM.
Work on `CC(C)(C)OC(=O)NCCON=C1CCC(CN2CCN(c3nc(=O)c4cc(C(F)(F)F)cc([N+](=O)[O-])c4s3)CC2)CC1` (configuration not stated) yielded an MIC [1] of 0.033 µM (≈ 0.0207 µg/mL), a solubility at 24 h [2] of 2.4 µg/mL (≈ 3.82 µM) and a CC50 at 72 h [7] of over 102 µM.
In the case of `CC(C)(C)OC(=O)CNC(=O)CCON=C1CCC(CN2CCN(c3nc(=O)c4cc(C(F)(F)F)cc([N+](=O)[O-])c4s3)CC2)CC1` (configuration not stated), the MIC [1] was under 0.026 µM and the CC50 at 72 h [7] was over 95 µM.
For `O=C(O)CCON=C1CCC(CN2CCN(c3nc(=O)c4cc(C(F)(F)F)cc([N+](=O)[O-])c4s3)CC2)CC1` (configuration not stated), the MIC [1] was 0.214 µM (≈ 0.119 µg/mL) and the CC50 at 72 h [7] was over 115 µM.
With `C[C@H](NC(=O)CON=C1CCC(CN2CCN(c3nc(=O)c4cc(C(F)(F)F)cc([N+](=O)[O-])c4s3)CC2)CC1)C(=O)O` (some centres not stated) the MIC [1] was 2.9 µM (≈ 1.79 µg/mL).
For `O=C(O)CON=C1CCC(CN2CCN(c3nc(=O)c4cc(C(F)(F)F)cc([N+](=O)[O-])c4s3)CC2)CC1` (configuration not stated), the inhibition at 10 µM (hERG (KCNH2)) was 5.8%, the Activity [8] was “Toxic” and the MIC [1] was under 0.029 µM. For the same molecule, the solubility at 24 h [2] was 1200 µg/mL (≈ 2210 µM), the Activity [9] was “Non-Toxic” and the LD50 at 168 h [10] was over 1000 mg/kg. It also gave a half-life [3] of 3.06 h, an AUC(0-inf) [4] of 1410 ng·h/mL and a CC50 at 72 h [7] of over 118 µM. It also gave a Cmax [5] of 770 ng/mL and a Tmax [6] of 0.33 h.
For `CC(C)(ON=C1CCC(CN2CCN(c3nc(=O)c4cc(C(F)(F)F)cc([N+](=O)[O-])c4s3)CC2)CC1)C(=O)NCC(=O)O` (configuration not stated), the MIC [1] was 0.653 µM (≈ 0.41 µg/mL) and the solubility at 24 h [2] was 530 µg/mL (≈ 843 µM).
`CC(C)(C)OC(=O)CNC(=O)C(C)(C)ON=C1CCC(CN2CCN(c3nc(=O)c4cc(C(F)(F)F)cc([N+](=O)[O-])c4s3)CC2)CC1` (configuration not stated) gave an MIC [1] of 0.086 µM (≈ 0.0589 µg/mL), a solubility at 24 h [2] of 4 µg/mL (≈ 5.84 µM) and a CC50 at 72 h [7] of over 94 µM.
In the case of `NCCON=C1CCC(CN2CCN(c3nc(=O)c4cc(C(F)(F)F)cc([N+](=O)[O-])c4s3)CC2)CC1` (configuration not stated), the inhibition at 10 µM (hERG (KCNH2)) was 5.66%, the Activity [8] was “Toxic” and the MIC [1] was 0.091 µM (≈ 0.0481 µg/mL). For the same molecule, the Activity [9] was “Non-Toxic”, the LD50 at 168 h [10] was over 1000 mg/kg and the half-life [3] was 3.6 h. The AUC(0-inf) [4] was 3840 ng·h/mL, the solubility at 24 h [11] was over 2000 µg/mL and the Cmax [5] was 798 ng/mL. The Tmax [6] was 1 h.
With `C[C@H](NC(=O)CON=C1CCC(CN2CCN(c3nc(=O)c4cc(C(F)(F)F)cc([N+](=O)[O-])c4s3)CC2)CC1)C(=O)OC(C)(C)C` (some centres not stated) the MIC [1] was 0.181 µM (≈ 0.121 µg/mL) and the CC50 at 72 h [7] was over 95 µM.
Molecule `CC(C)(C)OC(=O)CNC(=O)CON=C1CCC(CN2CCN(c3nc(=O)c4cc(C(F)(F)F)cc([N+](=O)[O-])c4s3)CC2)CC1` (configuration not stated) has an MIC [1] of 0.044 µM (≈ 0.0289 µg/mL) and a CC50 at 72 h [7] of over 98 µM.
`COC(=O)CNC1CCC(CN2CCN(c3nc(=O)c4cc(C(F)(F)F)cc([N+](=O)[O-])c4s3)CC2)CC1` (configuration not stated) showed an MIC [1] of 1.05 µM (≈ 0.573 µg/mL).
With `O=C(O)CNC1CCC(CN2CCN(c3nc(=O)c4cc(C(F)(F)F)cc([N+](=O)[O-])c4s3)CC2)CC1` (configuration not stated) the MIC [1] was over 18.9 µM and the CC50 at 72 h [7] was over 121 µM.
Work on `C[C@H](NC(=O)C(C)(C)ON=C1CCC(CN2CCN(c3nc(=O)c4cc(C(F)(F)F)cc([N+](=O)[O-])c4s3)CC2)CC1)C(=O)O` (some centres not stated) yielded an MIC [1] of 1.33 µM (≈ 0.853 µg/mL).
With `C[C@H](NC(=O)C(C)(C)ON=C1CCC(CN2CCN(c3nc(=O)c4cc(C(F)(F)F)cc([N+](=O)[O-])c4s3)CC2)CC1)C(=O)OC(C)(C)C` (some centres not stated) the MIC [1] was under 0.023 µM and the CC50 at 72 h [7] was over 92 µM.
`CC(C)(ON=C1CCC(CN2CCN(c3nc(=O)c4cc(C(F)(F)F)cc([N+](=O)[O-])c4s3)CC2)CC1)C(=O)O` (configuration not stated) showed an MIC [1] of 0.114 µM (≈ 0.0652 µg/mL), a solubility at 24 h [2] of 490 µg/mL (≈ 857 µM) and a CC50 at 72 h [7] of over 112 µM.
With `O=C(O)CNC(=O)CON=C1CCC(CN2CCN(c3nc(=O)c4cc(C(F)(F)F)cc([N+](=O)[O-])c4s3)CC2)CC1` (configuration not stated) the MIC [1] was 1.54 µM (≈ 0.925 µg/mL).
For `CC(C)(C)OC(=O)CCON=C1CCC(CN2CCN(c3nc(=O)c4cc(C(F)(F)F)cc([N+](=O)[O-])c4s3)CC2)CC1` (configuration not stated), the MIC [1] was under 0.026 µM and the CC50 at 72 h [7] was over 104 µM.
For `NNC(=O)c1ccncc1` [ISONIAZID], the MIC [1] was 0.342 µM (≈ 0.0469 µg/mL).
`O=c1nc(N2CCN(CC3CCCCC3)CC2)sc2c([N+](=O)[O-])cc(C(F)(F)F)cc12` [MACOZINONE] showed an MIC [1] of under 0.035 µM, a solubility at 24 h [2] of 1.1 µg/mL (≈ 2.41 µM) and a half-life [3] of 6.43 h. It also gave an AUC(0-inf) [4] of 2310 ng·h/mL, a CC50 at 72 h [7] of over 140 µM and a Cmax [5] of 295 ng/mL. It also gave a Tmax [6] of 2 h.
`CO[C@H]1/C=C/O[C@@]2(C)Oc3c(C)c(O)c4c(O)c(c(/C=N/N5CCN(C)CC5)c(O)c4c3C2=O)NC(=O)/C(C)=C\C=C\[C@H](C)[C@H](O)[C@@H](C)[C@@H](O)[C@@H](C)[C@H](OC(C)=O)[C@@H]1C` [RIFAMPIN] gave an MIC [1] of 0.04 µM (≈ 0.0329 µg/mL).
